Measurements as given in patent publication US8674113B2, “Compounds” (Boehringer Ingelheim International GmbH, priority 2010, dated 2014).
pIC50: −log10 of the molar value. Where two headings read alike, the source gives them in different places.

Legend:
[1] = target: recombinant human mPGES-1 (Homo sapiens (Human), UniProt O14684); test: mPGES-1 enzyme assay (HTRF detection of PGE2); type: biochemical
Protocol: Microsomes from Rosetta E. coli bacteria expressing recombinant human mPGES-1 can be derived as described below:
Inoculate 5 ml LB with Ampicilin (50 μg/ml) and Chloramphenicol (34 μg/ml) with bacteria from freeze culture. Incubate 8 h at 37° C. with 200 rpm. Thereafter, inoculate 500-1000 ml LB containing Amp and Chloro with the 5 ml on culture and grow to OD640 of 0.8-1.0. Chill the culture to +4° C. before induction. Induce the culture with IPTG at a final concentration of 400 μM. Express the protein at room temp 18-23° C. with 200 rpm shaking over night.
The following steps can be performed on the following day: • 1. Spin down the cells in 250 ml centrifuge flasks for 15 min at 7000 rpm (Beckmann Coulte Avanti J-E centrifuge) • 2. Dissolve the pellet from 250 ml culture in 12.5 ml homogenization buffer • 3. (15 mM Tris-HCL pH8, 1 mM EDTA pH8, […], 2.5 mM GSH, 1 Tablet Protease inhibitor per 50 ml buffer) • 4. Disintegrate the cells by sonication, 5×10 seconds at 48% amplitude of a 750 W sonifier • 5. Add 2.5 ml MgCl2 (100 mM) and DNase 12.5 μl (0.8 mg/ml) and incubate on ice for 30 min • 6. Spin down the bacteria debris and save the supernatant, 7000 rpm for 15 min • 7. Isolate the protein containing membranes in the supernatant by ultracentrifugation 120000×g for 2 hour at 4° C. (Sorvall T880 rotor). • 8. Discard the supernatant and dissolve the pellet in 20 mM Potassium phosphate buffer pH7.4 (KH2PO4 and K2HPO4) buffer by sonication (5×10 s, 30% of a 50 W sonifier) and aliquot the enzyme and store aliquots at −80° C.
Before each experiment is performed an aliquot of the enzyme is thawed and it can then be dissolved in 0.1 M Potassium phosphate buffer pH7.4 (KH2PO4 and K2HPO4) buffer containing 2.5 mM GSH.
The aim of this assay is to determine the affinity of a test compound for the mPGES-1 enzyme.
47 μl of recombinant human mPGES-1 (˜0.5 μg protein/well) containing microsomal suspension in a buffer containing GSH, (2.5 mmol/L L-Glutathione reduced, dissolved in 0.1 mol/L Phosphat Buffer pH 7.4) is dispensed in a 384-well plate and thereafter 1 μl of the test compound(s) is/are added and incubated for 25 minutes at room temperature. The enzyme reaction is started by the addition of 2 ul PGH2 (final conc 2 μM) disolved in water-free Diglyme. After 60 seconds the reaction is terminated by addition of a stop solution containing FeCl2 (10 μL 0.074 mol/l FeCl2). The samples are diluted between 1:25 in PBS (Phosphate Buffered Saline). 10 μl of the diluted samples are transferred to 384-well low volume plate. In order to quantify the amount of PGE2 that has been formed, a homogenous time resolved fluorescent (HTRF) detecting of PGE2 has been performed using a commercially available kit from Cisbio according to the manufactures recommendation. This HTRF-based assay has been described in detail (see: Goedken et al., J Biomol Screen, 2008, 13(7), 619-625). Briefly, the diluted samples are mixed with 5 μl PGE2-d2 conjugate and 5 μl anti-PGE2 cryptate conjugate. After an incubation period of the plates over night, the fluorescence is measured by the use of an appropriate microplate reader.
The fluorescence of Europium cryptate (maxex=307 nm, maxem=620 nm) and d2-PGE2 (maxex=620 nm, maxem=665 nm) are measured.
The extent of the specific HTRF is measured as a ratio of the emission intensity at 665 nm vs. that at 620 nm at an excitation puts of 320 nm. The quantification plate contains also wells with different concentrations of PGE2 as calibration curve for the calculation of the PGE2 concentrations from the HTRF ratio values.
From all mPGES enzyme assay the background is subtracted and the IC50 is calculated over a nonlinear regression with conventional software.

mPGES-1 in A549 cells = mPGES-1 in A549 cells (Homo sapiens (Human), UniProt O14684); test: A549 cell-based assay (PGE2 formation, 50% human serum)
mPGES-1 in A549 cells, sequence (O14684 whole entry): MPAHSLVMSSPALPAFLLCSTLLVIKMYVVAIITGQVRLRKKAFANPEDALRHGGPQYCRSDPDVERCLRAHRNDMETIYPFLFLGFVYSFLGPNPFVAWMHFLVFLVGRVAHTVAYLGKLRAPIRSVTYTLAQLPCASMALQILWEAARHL
In short: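 A549 cells in F-12K with 50% human serum were stimulated 20-24 h with 5 ng/ml IL-1β and 10 nM arachidonic acid in presence of compound or vehicle. PGE2 in the cell-free medium was measured by HTRF, normalised to vehicle (100%). IC50 from 6-8 point titrations.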

[2] = recombinant human mPGES-1 microsomes, PGH2 2 μM, 60 seconds, read-out: mPGES-1 inhibitory effect IC50 in the enzyme assay
[3] = IL-1β 5 ng/ml, 10 nM arachidonic acid, 20-24 h, read-out: mPGES-1 inhibitory effect IC50 in the cell assay

recombinant human mPGES-1, sequence (O14684 whole entry): as above

## Cn1c(Nc2c(Cl)ccc(CNC(=O)C(C)(C)C)c2Cl)nc2cc(C(=O)NCC(F)(F)F)c(N3CCC(C(C)(C)O)CC3)cc21 [Example 29, N-(2,2,2-Trifluoroethyl)-2-{2,6-dichloro-3-[(2,2-dimethyl-propionylamino)-methyl]-phenylamino}-6-[4-(1-hydroxy-1-methyl-ethyl)-piperidinyl]-1-methyl-1H-benzimidazole-5-carboxylic acid amide]
[1]; [2]
  pIC50: 8.70
mPGES-1 in A549 cells; [3]
  pIC50: 8.52

## Cn1c(Nc2c(Cl)ccc(CNC(=O)C(C)(C)C)c2Cl)nc2cc(C(=O)NCC(F)(F)F)c(Nc3ccc(F)c(Cl)c3)cc21 [Example 30]
[1]; [2]
  pIC50: 8.30
mPGES-1 in A549 cells; [3]
  pIC50: 6.84

## CN(c1ccc(F)c(Cl)c1)c1cc2c(cc1C(=O)NCC(F)(F)F)nc(Nc1c(Cl)ccc(CNC(=O)C(C)(C)C)c1Cl)n2C [Example 31]
[1]; [2]
  pIC50: 8.40
mPGES-1 in A549 cells; [3]
  pIC50: 7.48

## Cn1c(Nc2c(Cl)ccc(CNC(=O)C(C)(C)C)c2Cl)nc2cc(C(=O)NCC(F)(F)F)c(N3CCc4ccc(Cl)cc4C3)cc21 [Example 32]
[1]; [2]
  pIC50: 8.70
mPGES-1 in A549 cells; [3]
  pIC50: 8.22

## Cc1nc2c(s1)CN(c1cc3c(cc1C(=O)NCC(F)(F)F)nc(Nc1c(Cl)ccc(CNC(=O)C(C)(C)C)c1Cl)n3C)C2 [Example 33]
[1]; [2]
  pIC50: 8.52
mPGES-1 in A549 cells; [3]
  pIC50: 8.10

## CN(CCC(F)(F)F)c1cc2c(cc1C(=O)NCC(F)(F)F)nc(Nc1c(Cl)ccc(CNC(=O)C(C)(C)C)c1Cl)n2C [Example 34]
[1]; [2]
  pIC50: 8.52
mPGES-1 in A549 cells; [3]
  pIC50: 9.00

## Cn1c(Nc2c(Cl)ccc(CNC(=O)C(C)(C)C)c2Cl)nc2cc(C(=O)Nc3ccc(OC(F)(F)F)cc3)c(N3CCC(F)(F)C3)cc21 [Example 35, N-(4-Trifluoromethoxy-phenyl)-2-{2,6-dichloro-3-[(2,2-dimethyl-propionylamino)-methyl]-phenylamino}-6-[3,3-difluoro-pyrrolidinyl]-1-methyl-1H-benzimidazole-5-carboxylic acid amide]
[1]; [2]
  pIC50: 8.70
mPGES-1 in A549 cells; [3]
  pIC50: 9.00

## CC(NC(=O)c1cc2nc(Nc3c(Cl)ccc(CNC(=O)C(C)(C)C)c3Cl)n(C)c2cc1N1CCC(F)(F)C1)c1cccs1 (stereo not drawn) [Example 36]
[1]; [2]
  pIC50: 8.30
mPGES-1 in A549 cells; [3]
  pIC50: 8.19

## Cn1c(Nc2c(Cl)ccc(CNC(=O)C(C)(C)C)c2Cl)nc2cc(C(=O)NC3(c4ccc(F)cc4)CC3)c(N3CCC(F)(F)C3)cc21 [Example 37]
[1]; [2]
  pIC50: 8.30
mPGES-1 in A549 cells; [3]
  pIC50: 8.52

## Cn1c(Nc2c(Cl)ccc(CNC(=O)C(C)(C)C)c2Cl)nc2cc(C(=O)NC(c3ccccn3)C(F)(F)F)c(N3CCC(F)(F)C3)cc21 (stereo not drawn) [Example 38]
[1]; [2]
  pIC50: 8.40
mPGES-1 in A549 cells; [3]
  pIC50: 8.22

## CC(NC(=O)c1cc2nc(Nc3c(Cl)ccc(CNC(=O)C(C)(C)C)c3Cl)n(C)c2cc1N1CCC(F)(F)C1)C(F)(F)F (stereo not drawn) [Example 39]
[1]; [2]
  pIC50: 9.00
mPGES-1 in A549 cells; [3]
  pIC50: 8.70

## Cn1c(Nc2c(Cl)ccc(CNC(=O)C(C)(C)C)c2Cl)nc2cc(C(=O)Nc3cccc(OC(F)(F)F)c3)c(N3CCC(F)(F)C3)cc21 [Example 40]
[1]; [2]
  pIC50: 8.70
mPGES-1 in A549 cells; [3]
  pIC50: > 9.00

## Cn1c(Nc2c(Cl)ccc(CNC(=O)C(C)(C)C)c2Cl)nc2cc(C(=O)N[C@H](c3ccccc3)C(F)(F)F)c(N3CCC(F)(F)C3)cc21 [Example 41]
[1]; [2]
  pIC50: 8.70
mPGES-1 in A549 cells; [3]
  pIC50: 8.15

## Cn1c(Nc2c(Cl)ccc(CNC(=O)C(C)(C)C)c2Cl)nc2cc(C(=O)Nc3ccc(F)c(Cl)c3)c(N3CCC(F)(F)C3)cc21 [Example 42]
[1]; [2]
  pIC50: 8.70
mPGES-1 in A549 cells; [3]
  pIC50: 8.70

## Cn1c(Nc2c(Cl)ccc(CNC(=O)C(C)(C)C)c2Cl)nc2cc(C(=O)NCc3ncccc3C(F)(F)F)c(N3CCC(F)(F)C3)cc21 [Example 43]
[1]; [2]
  pIC50: 8.52
mPGES-1 in A549 cells; [3]
  pIC50: 8.30

## Cn1c(Nc2c(Cl)ccc(CNC(=O)C(C)(C)C)c2Cl)nc2cc(C(=O)NCc3ccc(F)cc3C(F)(F)F)c(N3CCC(F)(F)C3)cc21 [Example 44]
[1]; [2]
  pIC50: 8.40
mPGES-1 in A549 cells; [3]
  pIC50: 8.22

## Cn1c(Nc2c(Cl)ccc(CNC(=O)C(C)(C)C)c2Cl)nc2cc(C(=O)NCC3CC3)c(N3CCC(F)(F)C3)cc21 [Example 45]
[1]; Table C comparison of selected benzimidazoles, read-out: Enzym IC50
  pIC50: 8.30
[1]; [2]
  pIC50: 8.30
mPGES-1 in A549 cells; [3]
  pIC50: 8.15
mPGES-1 in A549 cells; Table C comparison of selected benzimidazoles, read-out: Cell IC50
  pIC50: 8.15
